Laboratory results as given in patent US12498375B2, “Water-soluble compound for detection of beta-amyloid” (KOREA ATOMIC ENERGY RESEARCH INSTITUTE, priority 2020, dated 2025).

Experiments:
Ab42 fibrils = target: T1, Ab42 fibrils (Homo sapiens, UniProt P05067); test: Measurement of maximum excitation and emission wavelengths (SpectraMax M2); assay type: physicochemical; settings: 10 μM Ab42 fibrils, 5 μM compound, PBS buffer
T1 construct: 10 μM of Ab42 fibrils
Description: The maximum excitation and emission wavelengths λmax of the Compounds 1, 2, 4, and 5 according to the present invention were measured by SpectraMax M2 (molecular devices). 10 μM of Ab42 fibrils and 5 μM of each compound, produced by the aforementioned method, as final concentrations were used in a PBS buffer solution. In general, the excitation λmax is determined by scanning the fixed first emission, and the emission λmax is determined by scanning the excitation spectrum with the fixed λmax. The absorbance of each of the Compound 1, Compound 2, Compound 4, and Compound 5 synthesized above was measured, and the results thereof are shown in FIG. 2.

[1] = target: T2, beta-amyloid (Aβ42 aggregate) (Homo sapiens, UniProt P05067); test: Evaluation of activity (fluorescence) before and after binding to beta-amyloid; settings: for Change in fluorescence intensity after binding to beta-amyloid: before vs after binding to Aβ42 aggregate; for Faβ/F0 (fluorescence reactivity to the Aβ peptide): before vs after binding to Aβ peptide
T2 construct: 10 μM of Ab42 fibrils
T2 sequence (P05067 672-713 limits assumed): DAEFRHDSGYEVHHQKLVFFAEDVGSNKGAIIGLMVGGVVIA
Description: Regarding each of the Compound 1, Compound 2, Compound 4, and Compound 5 synthesized above, the activity before and after binding to beta-amyloid was evaluated, and the results thereof are shown in FIG. 3. […] Moreover, the absorption wavelengths of each of the Compound 1, Compound 2, Compound 4, and Compound 5 before and after binding to beta-amyloid are shown in Table 2 below. […] In particular, regarding the fluorescence reactivity to the Aβ peptide, the Faβ/F0 values of the Compounds 1, 2, 4, and 5 were 4.3, 11.6, 3.1, and 9.6, respectively, indicating high fluorescence properties (see Table 2 below). Furthermore, from FIG. 3, it was confirmed that there was a clear difference in the emission wavelength before and after the compound according to the present invention bound to the amyloid plaque.

[2] = Retina-targeting experiment in laboratory mouse (IVIS spectrum CT imaging); assay type: in vivo; settings: 8 mg/kg tail vein, 3-month-old nude mouse
Description: A water-soluble Compound 1 (8 mg/kg) was injected into the tail vein of a 3-month-old nude mouse, and imaging was carried out with an IVIS spectrum CT system device, and the results thereof are shown in FIG. 4.

T1 sequence (P05067 672-713 limits assumed): as above

SMILES | λem (Ab42 fibrils) [nm] | λex (Ab42 fibrils) [nm] | Change in fluorescence intensity after binding to beta-amyloid [1] [fold] | Faβ/F0 (fluorescence reactivity to the Aβ peptide) [1] | fluorescence signal in the eye of mouse ([2]; 1 minute after intravenous injection) | fluorescence signal in the eye of mouse ([2]; 10 minutes after intravenous injection)
CN(C)c1ccc(/C=C/C2=[N+](CCCCS(=O)(=O)[O-])c3ccc4ccccc4c3C2(C)C)cc1 [Compound 1] | 620 | 560 | 4.3 | 4.3 | strong fluorescence signal | weak fluorescence signal
CN(C)c1ccc(-c2ccc(/C=C/C3=[N+](CCCCS(=O)(=O)[O-])c4ccc5ccccc5c4C3(C)C)s2)cc1 [Compound 2, (E)-4-(2-(2-(5-(4-(dimethylamino)phenyl)thiophen-2-yl)vinyl)-1,1-dimethyl-1H-benzo[e]indol-3-ium-3-yl)butane-1-sulfonate] | 765 | 805 | 11.6 | 11.6 | – | –
CC1(C)C(/C=C/c2ccc(N3CCNCC3)cc2)=[N+](CCCCS(=O)(=O)[O-])c2ccc3ccccc3c21 [Compound 4, (E)-4-(1,1-dimethyl-2-(4-(piperazin-1-yl)styryl)-1H-benzo[e]indol-3-ium-3-yl)butane-1-sulfonate] | 620 | 570 | 3.1 | 3.1 | – | –
CNc1ccc(-c2ccc(/C=C/C3=[N+](CCCCS(=O)(=O)[O-])c4ccc5ccccc5c4C3(C)C)s2)cc1 [Compound 5, (E)-4-(1,1-dimethyl-2-(2-(5-(4-(methylamino)phenyl)thiophen-2-yl)vinyl)-1H-benzo[e]indol-3-ium-3-yl)butane-1-sulfonate] | 760 | 575 | 9.6 | 9.6 | – | –
